Results from US20260144862A1, “MATERIALS AND METHODS TO TREAT EPSTEIN-BARR VIRUS (EBV) AND EBV-INDUCED DISEASES” (Medizinische Universität Wien, priority 2022, published 2026).

B1: Monalizumab: α-NKG2A blocking monoclonal antibodies (Innate Pharma) (antibody, chains of the INN, looked up, V domains shown)
VH: QVQLVQSGAEVKKPGASVKVSCKASGYTFTSYWMNWVRQAPGQGLEWMGRIDPYDSETHYAQKLQGRVTMTTDTSTSTAYMELRSLRSDDTAVYYCARGGYDFDVGTLYWFFDVWGQGTTVTVSS
VL: DIQMTQSPSSLSASVGDRVTITCRASENIYSYLAWYQQKPGKAPKLLIYNAKTLAEGVPSRFSGSGSGTDFTLTISSLQPEDFATYYCQHHYGTPRTFGGGTKVEIK

Assays:
[1] = system: EBV B95-8 isolate; assay: Virus (EBV) dissemination assay in K562-CR2-HLA-E cells; assay type: cell-based, Epstein-Barr virus; settings: for viral spread (BZLF1+ K562-CR2-HLA-E cells); effect of peptide on NKG2A+ NK or NKG2A+ CD8+ T cell mediated prevention of the viral spread: 300 μM LMP-1 peptide, 2-14 days of co-culture; for inhibition of NKG2A+ CD8+ T cells in EBV-dissemination assay (granzyme B-expressing cells) / inhibition of NKG2A+ NK cells in EBV-dissemination assay (granzyme B-expressing cells): peptide-pulsed K562-CR2-HLA-E*0103/0103 and K562-CR2-HLA-E*0101/0101 cells; for inhibition of NKG2A+ CD8+ T cells in EBV-dissemination assay (granzyme B-expressing cells): sorted NKG2A+ CD8+ T cells; for inhibition of NKG2A+ NK cells in EBV-dissemination assay (granzyme B-expressing cells): sorted NKG2A+ NK cells
Procedure: For the virus dissemination assays, the marmoset B-lymphoblastoid cell line B95-8 was cultured in RPM1 1640 medium supplemented with 20 mM glutamine, 50 µg/ml gentamicin, 0.2 µg/ml amphotericin B and 10% FCS (Thermo-Scientific). Cells were then cultured in the presence of […] (Biomol) for two weeks. EBV was harvested from the supernatant and enriched by ultracentrifugation (30000 U/min, 90 min, 10° C.). The virus stocks were stored at −80° C. in RPMI 1640 medium+10% FCS+10% DMSO (all: Thermo-Scientific). The multiplicity of infection (MOI) of the viral stocks was determined on K562-CR2-HLA-E*0101/0101 and K562-CR2-HLA-E*0103/0103 cells by flow-cytometry.
RMA-S/HLA-E/LFA-3 cells (kindly provided by Chiara Romagnani, DRFZ, Berlin) were maintained in RPMI-1640+20 mM glutamine+10% FCS+20 μM β-mercaptoethanol+100 U/ml penicillin-streptomycin (all Thermo Fisher)+400 μg/ml hygromycin B+1 mg/ml G418 (both InvivoGen). 2×10^6 RMA-S/LFA3/HLA-E cells were incubated for 16 h at 37° C., 5% CO2, with 300 μM of respective peptides (Peptides&Elephants) in 1 ml serum-free OptiMEM (Thermo-Fisher). Cells were afterwards inactivated using 20 μg/mL Mitomycin C (Sigma Aldrich) at 37° C. for 30 minutes. Peptide pulsed RMA-S/LFA3/HLA-E cells were co-cultured with […] CFSE (Thermo-Fisher) stained CD56^+ or CD8^+ MACS-enriched cells for 7 days in RPMI+10% FCS. Proliferating (CFSE^low) NKG2A^+CD56^+ NK cells, NKG2A^+ CD8^+ T cells or […]-specific, HLA-E-restricted NKG2A^+ or NKG2A^− T cells were then sorted by FACS as described below.
Fresh K562-CR2-HLA-E*0101/0101 and K562-CR2-HLA-E*0103/0103 cells were then inactivated using 20 μg/mL Mitomycin C at 37° C. for 30 minutes and then infected with the EBV B95-8 isolate (MOI=1) for 24 h. The infected cells were then co-cultured together with the sorted NKG2A^+ CD56^+ NK cells, NKG2A^+ CD8^+ T cells or […]-specific, HLA-E-restricted NKG2A^+ or NKG2A^− T cells (E:T, 1:2). In some experiments, 300 μM of respective peptides was also added. At indicated time points, the cells were harvested and analyzed by flow-cytometry, as described below.

[2] = system: HLA-E; assay: LMP-1 dependent HLA-E up-regulation assay in GlialCAM370-389-specific B-cells; assay type: cell-based, human; settings: B-cells from 24 healthy blood donors transfected with LMP-1 peptide, 16 h
Procedure: (§1) For the HLA-E stabilization experiments, 5×10^6 viable CFSE stained PBMCs were cultured in RPMI-1640+10% FCS in the presence of 10 μg GlialCAM370-389 ([…]), 10 μg of random 20 amino acid peptides (negative control, GenScript) or without peptides (non-peptide control) and 10 ng/mL IL-2 (Peprotech) at 37° C. Every three days, fresh 10 μg GlialCAM370-389 and 10 ng/mL IL-2 were added. After 7 days of co-culture, GlialCAM370-389-specific B-cells were sorted. 1×10^5 GlialCAM370-389-specific B-cells were then individually transfected with the indicated concentrations of the LMP-1 peptides (Peptides&Elephants) using the Pierce Protein Transfection Reagent according to the manufacturer's instructions (Thermo Fisher). After 16 h, the cells were either fixed and analyzed for HLA-E expression by flow cytometry, as described below, or washed once with Opti-MEM I Reduced Serum Medium (Gibco) and subsequently used in NKG2A^+ NK cell inhibition experiments. For the NKG2A^+ NK cell inhibition experiments, sorted NKG2A^+NKG2C^−NKG2D^− NK cells from 24 healthy blood donors were cultured together with peptide-pulsed GlialCAM370-389 B-cells (E:T, 1:1) for 6 h at 37° C. After co-cultivation, the supernatant was removed, cleared by centrifugation (1000×g, 5 min), and analyzed using IFNγ ELISA according to the manufacturer's recommendations (Thermo Fisher).

[3] = system: NKG2A+ NKG2C−NKG2D− NK cells; assay: NKG2A+ NK cell inhibition by LMP-1 peptide-transfected GlialCAM370-389-specific B-cells (IFNγ ELISA); assay type: cell-based, human; settings: LMP-1 peptide-pulsed GlialCAM370-389-specific B-cells, E:T 1:1, 6 h
Procedure: as §1

[4] = system: NKG2A+ CD8+ T cells; assay: NKG2A+ CD8+ T cell inhibition assay; assay type: cell-based, human; settings: K562-HLA-E*0101/0101 or K562-HLA-E*0103/0103 target cells pulsed with 300 μM peptide
Procedure: For the CD8^+ T cells experiments, CD8^+ MACS-enriched cells were quickly thawed at 37° C., washed once, and pre-activated overnight in RPMI, 10% FCS, 1% L-glutamine and 20 ng/ml IL-2 (PeproTec) at 37° C. CD8^+ T cells were then harvested by centrifugation (400×g, 5 min) and then washed once with Opti-MEM I Reduced Serum Medium. CD8^+ T cells were then cultured together with peptide pulsed K562-HLA-E*0101/0101 or K562-HLA-E*0103/0103 cells (E:T, 1:2), 1× monensin and 1× brefeldin A for 6 h. […] were harvested, fixed with the FIX & PERM Cell Fixation & Cell Permeabilization Kit and analysed by flow-cytometry, as described below.

[5] = system: NKG2A+ NK cells; assay: NKG2A+ NK cell inhibition assay; assay type: cell-based, human; settings: K562-HLA-E*0101/0101 or K562-HLA-E*0103/0103 target cells pulsed with 300 μM LMP-1 peptide
Procedure: For the NKG2A^+ NK cell inhibition experiments, MACS-enriched CD56^+ cells were quickly thawed at 37° C., washed, and pre-activated overnight in RPMI, 10% FCS, 1% L-glutamine (all: Thermo Fisher Scientific), 10 ng/ml IL-12 (PeproTec) and 100 ng/ml IL-18 (Biozym Scientific) at 37° C. CD56^+ NK cells were then harvested by centrifugation at 400×g for 5 minutes and washed once with Opti-MVEM I Reduced Serum Medium (Gibco). The NK cells were then cultured together with peptide pulsed K562-HLA-E*0101/0101 or K562-HLA-E*0103/0103 cells (E:T, 1:2) and 5 μL mouse anti-human CD107-APC-H7 (BD) for 6 h. NK cells were then harvested, fixed with the FIX & PERM Cell Fixation & Cell Permeabilization Kit (Thermo-Scientific) and analysed by flow-cytometry, as described below.

[6] = system: NKG2A+ NKG2D−NKG2C− NK cells; assay: NK cell inhibition assay with GlialCAM370-389-specific cells, with or without NKG2A-blocking antibody (IFNγ ELISA); assay type: cell-based, human; settings: 10 μg/mL antibody, 12 h co-culture
Procedure: For the NK cell inhibition assays, GlialCAM370-389-specific (CFSE^low) CD4^+ T-cells, CD8^+ T-cells, and CD138^+ plasma cells were sorted and co-cultured together in an E:T ratio of 1:1 with sorted CD56^+NKG2A^+ NKG2D^−NKG2C^− NK cells from 24 healthy blood donors in OptiMem (Thermo Fisher) for 12 h at 37° C. For some experiments α-NKG2A blocking monoclonal antibodies (Monalizumab, 10 μg/mL, Innate Pharma) was added to the co-culture. The supernatant was removed, cleared by centrifugation (1000×g, 5 min), and then used for IFNγ (both Thermo Fisher) according to the manufacturer's instructions.

Molecule | viral spread (BZLF1+ K562-CR2-HLA-E cells); effect of peptide on NKG2A+ NK or NKG2A+ CD8+ T cell mediated prevention of the viral spread [1] | inhibition of NKG2A+ CD8+ T cells in EBV-dissemination assay (granzyme B-expressing cells) [1] | inhibition of NKG2A+ NK cells in EBV-dissemination assay (granzyme B-expressing cells) [1] | upregulation of HLA-E on the surface of GlialCAM370-389-specific B-cells [2] | inhibition of NKG2A+ cells (IFNγ concentration in the supernatant) [3] | inhibition of NKG2A+ CD8+ T cells (IFNγ-expressing NKG2A+ CD8+ T cells) [4] | inhibition of NKG2A+ NK cells [5] | inhibition of NKG2A+ cells by GlialCAM370-389-specific cells from patients with MS when NKG2A-blocking antibody is added [6]
GGDPHLPTL [EBV LMP-1 peptide variant] | increased viral spread | caused the inhibition | caused the inhibition | stable upregulation of HLA-E | potently inhibited | potent inhibition | potent inhibition | 
GGDPPLPTL [EBV LMP-1 peptide variant] | increased viral spread | caused the inhibition | caused the inhibition | stable upregulation of HLA-E | potently inhibited | potent inhibition | potent inhibition | 
B1 |  |  |  |  |  |  |  | reversible
